pIC50: −log10 of the molar value.
Target: T1, Adenosine receptor A1 (Bos taurus, UniProt P28190)
T1 sequence (P28190 whole entry): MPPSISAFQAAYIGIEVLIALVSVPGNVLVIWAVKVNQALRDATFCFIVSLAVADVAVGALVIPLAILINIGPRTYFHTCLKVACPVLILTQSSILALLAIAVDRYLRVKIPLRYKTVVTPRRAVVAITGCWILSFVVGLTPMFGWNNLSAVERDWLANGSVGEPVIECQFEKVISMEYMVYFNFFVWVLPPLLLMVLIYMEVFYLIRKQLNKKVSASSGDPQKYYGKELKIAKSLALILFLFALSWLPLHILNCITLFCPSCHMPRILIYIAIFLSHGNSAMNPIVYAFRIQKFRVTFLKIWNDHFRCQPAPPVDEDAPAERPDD
Experiment: Displacement of [3H]phenylisopropyladenosine from adenosine A1 receptor in bovine cerebral cortex membrane
Type: cell membranes

SMILES: COc1cc(-c2oc3c(OC)cc(CCCO)cc3c2C=O)ccc1O
- pIC50: 7.77

Source: ChEMBL document CHEMBL1158276, “Synthesis of 5-(3-Hydroxypropyl)-7-methoxy-2-(3-methoxy-4-hydroxyphenyl)-3- benzo[ b ]furancarbaldehyde, a Novel Adenosine A 1 Receptor Ligand from the Root of Salvia miltiorrhiza” (J Nat Prod, 1996)
